Columns and labels:
[1] = test system: recombinant cell line producing MAb E; assay: ATF bioreactors, cell culture performance; type: cell-based; conditions: 500 nM monensin for ~22 hours from day 8; ATF reactors Ra, Rb
Experimental: Cells in the control reactor (black circles) were grown in the absence of monensin. Viable cell density is illustrated in FIG. 1. FIG. 2 presents the results of viability analysis. […] Daily spent medium samples were also submitted for titer analysis.
The applicability of using monensin to modulate high mannose levels in a large scale, controlled production setting was evaluated using a recombinant cell line producing MAb E in alternating tangential flow (ATF) bioreactors. MAb E cells grown in growth medium for the seed train were used to inoculate the N-1 bioreactor at 6×10^5 cells/ml in growth medium. The cells from N-1 bioreactor were then used to inoculate three, 2 L production bioreactors (N) at 7.5×10^5 cells/ml in base perfusion medium (referred to as control, Ra, and Rb bioreactors).
The production bioreactors were grown for 20 days at pH 7.00, 36° C., 30% DO and 400 rpm agitation. These production tanks were run with the ATF system starting on day 3 with 0.5 vol/day perfusion rate, which was increased to 0.6 vol/day, 0.8352 vol/day and 1 vol/day on day 6, 7 and 8, respectively. Glucose levels were maintained separately at 5 g/L since the perfusion medium was prepared without glucose.
Antifoam was also added into the tank as needed, while 1M Sodium Carbonate was used to maintain pH at the desired setpoint. […]

MAb A producing cells = assay: GM130 immunofluorescence microscopy of Golgi; type: cell-based, Chinese hamster; conditions: day 10 mock perfusion cultures; monensin-treated vs control
Experimental: (§1) On day 10, cell pellets were washed once with cold PBS and fixed in 4% paraformaldehyde for 10 minutes on ice. Cells were then washed once in again in cold PBS and stored at 4° C. until they were immunofluorescently stained as described below
(§2) Monensin is known to cause gross changes in Golgi architecture characterized by swollen and fragmented cisternae. The structure of the Golgi of CHO production cell lines after monensin treatment was analyzed using a panel of five different commercially available antibodies against various Golgi proteins with a passaging culture of recombinant cells producing MAb A using immunofluorescence microscopy.
(§3) Next, day 10 control and monensin-treated mock perfusion cultures of MAb A producing cells and MAb C producing cells were subjected to immunofluorescence microscopy using GM130 antibody. Paraformaldehyde fixed cell pellets were permeablized with 0.1% TritonX-100 made in PBS. Pellets were washed with PBSA (0.5% BSA in PBS) and incubated with GM130 antibody (BD Biosciences, San Jose, Calif.) diluted 1:50 in PBSA. Cells were washed thrice with PBSA and incubated with Alexa 488 conjugated mouse secondary antibody (Invitrogen, Grand Island, N.Y.) diluted 1:1000 in PBSA. […] Images were captured using Zeiss 510 microscope (Carl Zeiss, Inc., Jena, Germany) with 63× water immersion lens and analyzed using LSM image browser software.

MAb C producing cells = assay: GM130 immunofluorescence microscopy of Golgi; type: cell-based, Chinese hamster; conditions: day 10; increasing monensin culminating at 100 nM from days 7-10
Experimental: as §1, §2, §3

CC[C@@]1([C@@H]2O[C@@H]([C@H]3O[C@@](O)(CO)[C@H](C)C[C@@H]3C)C[C@@H]2C)CC[C@H]([C@]2(C)CC[C@]3(C[C@H](O)[C@@H](C)[C@@H]([C@@H](C)[C@@H](OC)[C@H](C)C(=O)O)O3)O2)O1 [monensin]
impact on cell growth and viability [1]: slight negative impact on cell growth and viability
titers compared to the control tank [1]: marginally improved titers
Golgi morphology (GM130 staining) (MAb A producing cells): No morphological difference
Golgi morphology (GM130 staining) (MAb C producing cells): punctate distribution of GM130 protein
